Reference: ChEMBL document CHEMBL1137928, “Plasmepsin II inhibition and antiplasmodial activity of Primaquine-Statine 'double-drugs'” (Bioorg Med Chem Lett, 2004)

Assays:
Plasmepsin II [1] = target: T1, Plasmepsin II (Plasmodium falciparum, UniProt P46925); assay: In vitro concentration required for inhibition of Plasmodium falciparum plasmepsin-2
Plasmodium falciparum [2] = assay: In vitro inhibitory activity against chloroquine-sensitive Plasmodium falciparum D10 infected human red blood cells; assay type: functional, organism-based
Plasmodium falciparum [3] = assay: In vitro inhibitory activity against chloroquine-resistant Plasmodium falciparum W-2 infected human erythrocytes; assay type: functional, organism-based
Plasmepsin II [4] = target: T1, Plasmepsin II; assay: In vitro binding affinity towards Plasmodium falciparum plasmepsin-2
Plasmodium falciparum [5] = assay: Inhibition of Plasmodium falciparum; assay type: functional, organism-based
Plasmodium falciparum [6] = assay: In vitro inhibitory activity against chloroquine-resistant Plasmodium falciparum W2 infected human erythrocytes at 9 uM; assay type: functional
Plasmodium falciparum [7] = assay: In vitro inhibitory activity against chloroquine-sensitive Plasmodium falciparum D-10 infected human red blood cells at 9 uM; assay type: functional

T1 sequence (P46925 whole entry): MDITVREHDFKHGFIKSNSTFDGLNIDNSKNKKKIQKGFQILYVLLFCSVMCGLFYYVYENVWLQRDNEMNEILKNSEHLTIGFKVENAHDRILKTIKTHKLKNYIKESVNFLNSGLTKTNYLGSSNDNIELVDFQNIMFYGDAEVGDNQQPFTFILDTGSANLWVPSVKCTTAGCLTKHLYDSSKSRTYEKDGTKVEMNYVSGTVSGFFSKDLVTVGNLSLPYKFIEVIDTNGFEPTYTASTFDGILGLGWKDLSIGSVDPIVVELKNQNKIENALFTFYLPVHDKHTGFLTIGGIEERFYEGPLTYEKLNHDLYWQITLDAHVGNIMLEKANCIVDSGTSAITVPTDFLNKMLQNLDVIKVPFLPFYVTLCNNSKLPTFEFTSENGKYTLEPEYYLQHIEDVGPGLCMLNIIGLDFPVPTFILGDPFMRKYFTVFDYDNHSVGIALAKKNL

SMILES | IC50 (Plasmepsin II [1]) [nM] | IC50 (Plasmodium falciparum [2]) [nM] | IC50 (Plasmodium falciparum [3]) [nM] | further results
CCCCNC(=O)C[C@H](O)[C@H](CC(C)C)NC(=O)[C@@H](NC(=O)Cc1ccc(CC(=O)N[C@@H](CC(C)C)C(=O)N[C@@H](CCCCN)C(=O)NCCCC(C)Nc2cc(OC)cc3cccnc23)cc1)[C@H](C)CC (stereo partly specified) | 135 | 5500 | 4200 | 
CCCCNC(=O)C[C@H](O)[C@H](CC(C)C)NC(=O)[C@@H](NC(=O)COc1ccc2ccccc2c1)[C@@H](C)CC |  |  |  | Ki (Plasmepsin II [4]): 180 nM
CCCCNC(=O)C[C@H](O)[C@H](CC(C)C)NC(=O)[C@@H](NC(=O)c1ccc(Oc2ccc(C(=O)N[C@@H](CC(C)C)C(=O)O)cc2)cc1)C(C)CC (stereo partly specified) | 123 |  |  | IC50 (Plasmodium falciparum [5]): ~17000 nM
CCCCNC(=O)C[C@H](O)[C@H](CC(C)C)NC(=O)[C@@H](NC(=O)c1ccc(Oc2ccc(C(=O)N[C@H](CC(C)C)C(=O)N[C@H](CCCCN)C(=O)NCCCC(C)Nc3cc(OC)cc4cccnc34)cc2)cc1)[C@H](C)CC (stereo partly specified) | 0.59 | 400 | 700 | 
CCCCNC(=O)C[C@H](O)[C@H](CC(C)C)NC(=O)[C@@H](NC(=O)c1ccc2cc(C(=O)N[C@H](CC(C)C)C(=O)N[C@H](CCCCN)C(=O)NCCCC(C)Nc3cc(OC)cc4cccnc34)ccc2c1)[C@H](C)CC (stereo partly specified) | 1.51 | 6200 | 4700 | 
CCCCNC(=O)C[C@H](O)[C@H](Cc1ccccc1)NC(=O)[C@@H](NC(=O)COc1ccc2ccccc2c1)[C@@H](C)CC |  |  |  | Ki (Plasmepsin II [4]): 110 nM
CCCCNC(=O)C[C@H](O)[C@H](CC(C)C)NC(=O)[C@@H](NC(=O)c1ccc2cc(C(=O)OCCCC(=O)N[C@H](CC(C)C)C(=O)N[C@H](CCCCN)C(=O)NCCCC(C)Nc3cc(OC)cc4cccnc34)ccc2c1)[C@H](C)CC (stereo partly specified) | 9.6 | 3300 | 1000 | 
COc1cc(NC(C)CCCNC(=O)[C@@H](N)CCCCN)c2ncccc2c1 (stereo partly specified) | > 1000 |  |  | IC50 (Plasmodium falciparum [5]): ~20000 nM
CCCCNC(=O)C[C@H](O)[C@H](CC(C)C)NC(=O)[C@@H](NC(=O)CCC(=O)N[C@@H](CC(C)C)C(=O)N[C@@H](CCCCN)C(=O)NCCCC(C)Nc1cc(OC)cc2cccnc12)[C@H](C)CC (stereo partly specified) | 396 |  |  | inhibition at 9 µM (Plasmodium falciparum [6]): 40%; inhibition at 9 µM (Plasmodium falciparum [7]): 20%
